± gives the expanded uncertainty stated by the source.
Assay: xn = mol fraction of the nth substance listed
Settings: 101 kPa, Liquid; for viscosity: Capillary tube (Ostwald / Ubbelohde) method; for mass density: Pycnometric method

OCc1ccccc1 [benzenemethanol] + CCC(C)=O
Settings | mass density, 303.15 K [kg/m3] | mass density, 308.15 K [kg/m3] | mass density, 313.15 K [kg/m3] | mass density, 318.15 K [kg/m3] | mass density, 323.15 K [kg/m3] | viscosity, 303.15 K [mPa·s] | viscosity, 308.15 K [mPa·s] | viscosity, 313.15 K [mPa·s] | viscosity, 318.15 K [mPa·s] | viscosity, 323.15 K [mPa·s]
x1 = 0.1003 | 825.4 ± 0.9 | 820.4 ± 0.9 | 815.4 ± 0.9 | 810.4 ± 0.9 | 805.3 ± 0.9 | 0.446 ± 0.006 | 0.424 ± 0.006 | 0.403 ± 0.005 | 0.385 ± 0.005 | 0.368 ± 0.005
x1 = 0.2 | 854.7 ± 0.9 | 849.9 ± 0.9 | 845.1 ± 0.9 | 840.3 ± 0.9 | 835.5 ± 0.9 | 0.554 ± 0.007 | 0.524 ± 0.007 | 0.497 ± 0.006 | 0.472 ± 0.006 | 0.451 ± 0.006
x1 = 0.301 | 882.5 ± 0.9 | 877.8 ± 0.9 | 873 ± 0.9 | 868.3 ± 0.9 | 863.6 ± 0.9 | 0.697 ± 0.009 | 0.655 ± 0.008 | 0.616 ± 0.008 | 0.582 ± 0.007 | 0.551 ± 0.007
x1 = 0.3991 | 907.5 ± 0.9 | 903 ± 0.9 | 898.4 ± 0.9 | 893.9 ± 0.9 | 889.3 ± 0.9 | 0.876 ± 0.011 | 0.818 ± 0.01 | 0.765 ± 0.01 | 0.718 ± 0.009 | 0.676 ± 0.009
x1 = 0.5001 | 932.6 ± 0.9 | 928.2 ± 0.9 | 923.8 ± 0.9 | 919.4 ± 0.9 | 915 ± 0.9 | 1.131 ± 0.014 | 1.046 ± 0.013 | 0.97 ± 0.012 | 0.904 ± 0.011 | 0.845 ± 0.011
x1 = 0.6 | 956.3 ± 0.9 | 952 ± 0.9 | 947.8 ± 0.9 | 943.6 ± 0.9 | 939.3 ± 0.9 | 1.476 ± 0.019 | 1.351 ± 0.017 | 1.242 ± 0.016 | 1.146 ± 0.014 | 1.063 ± 0.013
x1 = 0.7008 | 978.2 ± 0.9 | 974.1 ± 0.9 | 969.9 ± 0.9 | 965.8 ± 0.9 | 961.7 ± 0.9 | 1.947 ± 0.025 | 1.761 ± 0.022 | 1.599 ± 0.02 | 1.461 ± 0.018 | 1.341 ± 0.017
x1 = 0.8001 | 998.5 ± 0.9 | 994.6 ± 0.9 | 990.5 ± 0.9 | 985.6 ± 0.9 | 982.7 ± 0.9 | 2.586 ± 0.033 | 2.307 ± 0.029 | 2.063 ± 0.026 | 1.866 ± 0.023 | 1.694 ± 0.021
x1 = 0.8997 | 1018.1 ± 0.9 | 1014.3 ± 0.9 | 1010.4 ± 0.9 | 1006.5 ± 0.9 | 1002.7 ± 0.9 | 3.452 ± 0.044 | 3.033 ± 0.038 | 2.682 ± 0.034 | 2.391 ± 0.03 | 2.144 ± 0.027
x1 = 1 | 1037.6 ± 0.9 | 1033.8 ± 0.9 | 1030.1 ± 0.9 | 1026.3 ± 0.9 | 1022.5 ± 0.9 | 4.689 ± 0.059 | 4.058 ± 0.051 | 3.531 ± 0.044 | 3.103 ± 0.039 | 2.747 ± 0.035
